Reference: US12059472B2 (Bayer Aktiengesellschaft, priority 2016, dated 2024)
Entries after “also recorded” stand apart in the source; their conditions may differ. Structures can show the parent of a compound that is named as a salt. Blank lines part the entries; values can stand above or below the compound they belong to.

Assays:
[1] = target: human kinesin spindle protein KSP/Eg5 (Homo sapiens (Human), UniProt P52732); assay: Inhibition of the kinesin spindle protein KSP/Eg5 (ATPase, malachite green); type: biochemical; conditions: Table 2; active metabolites; 10 nM KSP motor domain, 500 μM ATP
Chain of human kinesin spindle protein KSP/Eg5 (P52732 18-359): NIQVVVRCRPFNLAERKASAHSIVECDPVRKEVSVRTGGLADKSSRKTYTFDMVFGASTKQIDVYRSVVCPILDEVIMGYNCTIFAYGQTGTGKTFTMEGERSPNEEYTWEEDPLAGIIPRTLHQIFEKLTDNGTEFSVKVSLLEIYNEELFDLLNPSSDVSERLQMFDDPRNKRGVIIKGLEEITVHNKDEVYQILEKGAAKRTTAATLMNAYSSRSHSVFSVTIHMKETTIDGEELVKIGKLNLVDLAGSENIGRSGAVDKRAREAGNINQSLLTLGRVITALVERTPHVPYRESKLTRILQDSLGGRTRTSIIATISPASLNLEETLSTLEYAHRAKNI
Experimental: The motor domain of the human kinesin spindle protein KSP/Eg5 (tebu-bio/Cytoskeleton Inc, No. 027EG01-XL) was incubated in a concentration of 10 nM with microtubuli (bovine or porcine, tebu-bio/Cytoskeleton Inc) stabilized with 50 μg/ml taxol (Sigma No. T7191-5MG) for 5 min at RT in 15 mM PIPES, pH 6.8 (5 mM MgCl2 and 10 mM DTT, Sigma). […] Incubation was at RT for 2 h. ATPase activity was detected by detecting the inorganic phosphate formed using malachite green (Biomol). […] The positive controls used were monastrol (Sigma, M8515-1 mg) and ispinesib (AdooQ Bioscience A10486). The individual data of the dose-activity curve are eight-fold determinations. The IC50 values are means of two independent experiments.

Caco-2 cells = assay: Caco-2 flux assay for cell permeability; type: in vitro ADME
Experimental: The cell permeability of a substance can be investigated by means of in vitro testing in a flux assay using Caco-2 cells [M. D. Troutman and D. R. Thakker, Pharm. […] For this purpose, the cells were cultured for 15-16 days on 24-well filter plates. For the determination of permeation, the respective test substance was applied in a HEPES buffer to the cells either apically (A) or basally (B) and incubated for 2 hours. After 0 hours and after 2 hours, samples were taken from the cis and trans compartments. The samples were separated by HPLC (Agilent 1200, Böblingen, Germany) using reverse phase columns. The HPLC system was coupled via a Turbo Ion Spray Interface to a Triple Quadropol mass spectrometer API 4000 (AB SCIEX Deutschland GmbH, Darmstadt, Germany).
Of critical importance for toxophors which are released intracellularly is the permeability from B to A [Papp (B-A)] and the ratio of Papp (B-A) to Papp (A-B) (efflux ratio): the lower this permeability, the slower the active and passive transport processes of the substance through the monolayer of Caco-2 cells.

legumain = legumain (Homo sapiens (Human), UniProt Q99538); assay: Legumain assay (cleavage of prodrug); type: biochemical; conditions: pH 5.0; for half-life: human, recombinant human legumain, rh legumain 1 ng/μl, 50 mM MES, 250 mM NaCl, read-out: half-life of cleavage to the target compound in the legumain assay (converted)
Chain of legumain (Q99538 18-323): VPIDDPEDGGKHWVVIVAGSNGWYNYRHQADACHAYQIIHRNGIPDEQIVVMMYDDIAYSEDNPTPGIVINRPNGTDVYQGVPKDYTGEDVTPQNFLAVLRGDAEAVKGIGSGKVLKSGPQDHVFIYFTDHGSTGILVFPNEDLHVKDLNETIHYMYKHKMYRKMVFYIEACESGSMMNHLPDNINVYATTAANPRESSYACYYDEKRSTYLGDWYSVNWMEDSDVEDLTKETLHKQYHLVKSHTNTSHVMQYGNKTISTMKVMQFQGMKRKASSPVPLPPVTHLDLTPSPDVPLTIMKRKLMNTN
Experimental: The legumain assay was conducted with recombinant human enzyme. The rh legumain enzyme solution (catalogue #2199-CY, R&D Systems) was diluted to the desired concentration in 50 mM Na acetate buffer/100 mM NaCl, pH4.0 and preincubated at 37° C. for 2 h. rh legumain was then adjusted to a final concentration of 1 ng/μl in 50 mM MES buffer, 250 mM NaCl, pH 5.0. For every legumain-cleavable prodrug to be examined, a mixture was made up in a micro reaction vessel (0.5 ml, from Eppendorf). For this purpose, the substrate solution was adjusted to the desired concentration (double concentration) with 50 mM MES buffer, 250 mM NaCl, pH 5.0. For the kinetic measurement of the enzymatic reaction, 250 μl of the legumain solution were first initially charged and the enzyme reaction was started by adding 250 μl of the substrate solution (final concentration: single concentration). At different times, 50 μl samples were taken. This sample was admixed immediately with 100 μl of ice-cold methanol in order to stop the enzymatic reaction and then frozen at −20° C. The times selected for sampling were after 0.5 h, 1 h, 3 h and 24 h. The samples were then analysed by means of RP-HPLC analysis and by LC-MS analysis. The determination of the toxophore released enabled the determination of the half-life t1/2 of the enzymatic reaction (FIG. 1).

[2] = Stability in rat liver lysosomes; type: in vitro ADME; conditions: rat liver lysosomal extract, 37° C.; for extent of cleavage in the lysosomal stability assay: within 24 h
Experimental: To determine the lysosomal stability of compounds RM-A and RM-B, lysosomal enzymes were isolated from rat liver cells. Compounds A and B were each added to this lysosomal extract in order to examine stability under lysosomal conditions. The proteolytic enzyme legumain is expressed only in a very small amount, if any, in rat liver lysosomes (Chen, J-M. et al 1997). To monitor the enzymatic activity of the lysosomal enzymes, a cathepsin-specific substrate was added.
First of all, a fresh rat liver was removed, weighed and immediately placed on ice in homogenization medium (0.25 M sucrose, 1 mM EDTA, 10 mM HEPES, pH7). The liver was comminuted and a change of medium was undertaken. The rat livers were homogenized with 4 times the amount of the rat liver weight at 750 rpm in a Potter (B. Braun). The homogenate was centrifuged at 1000 g for 10 min and the supernatant was filtered. In the next step, with the aid of an ultracentrifuge, the “light mitochondrial fraction” (LMF) was centrifuged out of the supernatant at 26 500 g over 20 min. Also present in the pellet apart from mitochondria are the lysosomes. The supernatant was discarded and the pellet was resuspended with 0.8 ml/g of homogenization medium.
The sucrose was added from a 2.3 M stock solution of the particular percentage. 2.5 ml of isolated LMF were additionally added to the density stage with a sucrose content of 19%. Subsequently, the density stages were layered one on top of another in 10 ml centrifuge tubes and centrifuged at 48 500 g for 17 h. […] To monitor the lysis, the protein content of the lysed lysosomal fraction was monitored with the aid of a BCA assays (Pierce BCA protein assay kit).
To examine the lysosomal stability of compounds RM-A and RM-B, 6 μl of a 100 μg/ml stock solution (9 acetonitrile/1 DMSO) were added to 290 μl of 90 mM citrate buffer and 300 μl of lysosomal extract and incubated at 37° C. on an Eppendorf shaker. […] For the RP-HPLC LCMS analysis, the samples were diluted with 300 μl of 10 mM ammonium acetate buffer (pH 6.8) and analysed.

SMILES: CC(C)(C)[C@H](c1cc(-c2cc(F)ccc2F)cn1Cc1ccccc1)N(CC[C@H](N)C(=O)NCCNC(=O)[C@@H](CCC(=O)O)NC(=O)CNC(=O)[C@H](CC(=O)O)SC[C@H](N)C(=O)O)C(=O)CO [Example M2, trifluoroacetic acid salt]
- IC50 [1]: 0.467 nM
- transport from the cell and efflux ratio (in words) (Caco-2 cells; Caco-2): very low level of transport from the cell and a low efflux ratio
- Papp (B-A) (Caco-2 cells; Caco-2, basal to apical, 2 hours): 0.11 ×10⁻⁶ cm/s
- Efflux ratio (Caco-2 cells; Caco-2, ratio of Papp (B-A) to Papp (A-B)): 1.6

SMILES: CNC(=O)[C@H](CCN(C(=O)CO)[C@@H](c1cc(-c2cc(F)ccc2F)cn1Cc1ccccc1)C(C)(C)C)NC(=O)[C@H](CC(N)=O)NC(=O)[C@H](C)NC(=O)[C@H](C)NC(=O)Cc1ccncc1 [RM-A, N-(Pyridin-4-ylacetyl)-L-alanyl-L-alanyl-N^1-[(2S)-4-[{(1R)-1-[1-benzyl-4-(2,5-difluorophenyl)-1H-pyrrol-2-yl]-2,2-dimethylpropyl}(glycoloyl)amino]-1-(methylamino)-1-oxobutan-2-yl]-L-aspartamide]
- half-life (legumain): 0.2 h
- half-life at 1 µg/ml [2]: ~6 h
- extent of cleavage in the lysosomal stability assay [2]: about 80%

- half-life (legumain): ~10 h
- extent of cleavage in the lysosomal stability assay [2]: 13%
SMILES: CNC(=O)[C@H](CCN(C(=O)CO)[C@@H](c1cc(-c2cc(F)ccc2F)cn1Cc1ccccc1)C(C)(C)C)NC(=O)[C@H](CC(N)=O)NC(=O)Cc1ccncc1 [RM-B, N^1-[(2S)-4-[{(1R)-1-[1-Benzyl-4-(2,5-difluorophenyl)-1H-pyrrol-2-yl]-2,2-dimethylpropyl}(glycoloyl)amino]-1-(methylamino)-1-oxobutan-2-yl]-N^2-(pyridin-4-ylacetyl)-L-aspartamide]

SMILES: CNC(=O)[C@H](CCN(C(=O)CO)[C@@H](c1cc(-c2cc(F)ccc2F)cn1Cc1ccccc1)C(C)(C)C)NC(=O)[C@H](CCC(N)=O)NC(=O)Cc1ccncc1 [RM-C, N^1-[(2S)-4-[{(1R)-1-[1-Benzyl-4-(2,5-difluorophenyl)-1H-pyrrol-2-yl]-2,2-dimethylpropyl}(glycoloyl)amino]-1-(methylamino)-1-oxobutan-2-yl]-N^2-(pyridin-4-ylacetyl)-L-glutamide]
- cleavage by legumain (in words) (legumain; rh legumain): not cleaved; also recorded: not possible to show any cleavage by legumain
